The half-life is the time needed for the level to fall by half in the phase considered.

The values that follow come from article PMC3875306 (Bioorganic & medicinal chemistry letters, 2013).

For data set [1], the system named is squirrel monkey models of addiction. The following applies: cited from earlier work.
The subject of data set [2] is rat models of addiction. As to conditions: cited from earlier work.
Data set [3] concerns rat model of anxiety. As to conditions: cited from earlier work.
For data set [4], the system named is acoustic prepulse inhibition models. As to conditions: cited from earlier work.
Data set [5] has as its system rat models of neuropathic pain. As to conditions: cited from earlier work.
The subject of data set [6] is rat models of post-operative pain. As to conditions: cited from earlier work.
Data set [7] has as its target human mGlu1 (Homo sapiens, UniProt Q13255). Briefly: Calcium mobilization mGlu1 assay. As to conditions: for preference in mGlu1 NAM activity for the R-enantiomer versus the S-enantiomer: 15 vs 14, 17 vs 16; for LLE (ligand-lipophilicity efficiency): LLE = pIC50 - cLogP. For orientation: A change in cytosolic calcium serves as a functional read-out for many receptors and channels.

For data set [8] the following is noted: IV dosing, rat, in words.
Data set [9] in a line: in vivo. The following applies: male, Sprague-Dawley, rat, plasma, iv, 0.2 mg/kg.
The subject of data set [10] is mGlu2–8. As to conditions: at 10 µM.
In data set [11] the test system is 68 clinically relevant GPCRs, ion channels, kinases, and transporters. Nature of the data set: Radioligand binding assay panel. As to conditions: 10 µM; significant = more than 50% inhibition of radioligand binding.
Data set [12] concerns the target rat mGlu1 (Rattus norvegicus, UniProt P23385). Nature of the data set: Functional cell based assay against rat mGlu1. The following applies: HEK 293A TREx cells expressing rat mGlu1.

Structures are written as SMILES.

Sequence of human mGlu1 (Q13255 19-1194): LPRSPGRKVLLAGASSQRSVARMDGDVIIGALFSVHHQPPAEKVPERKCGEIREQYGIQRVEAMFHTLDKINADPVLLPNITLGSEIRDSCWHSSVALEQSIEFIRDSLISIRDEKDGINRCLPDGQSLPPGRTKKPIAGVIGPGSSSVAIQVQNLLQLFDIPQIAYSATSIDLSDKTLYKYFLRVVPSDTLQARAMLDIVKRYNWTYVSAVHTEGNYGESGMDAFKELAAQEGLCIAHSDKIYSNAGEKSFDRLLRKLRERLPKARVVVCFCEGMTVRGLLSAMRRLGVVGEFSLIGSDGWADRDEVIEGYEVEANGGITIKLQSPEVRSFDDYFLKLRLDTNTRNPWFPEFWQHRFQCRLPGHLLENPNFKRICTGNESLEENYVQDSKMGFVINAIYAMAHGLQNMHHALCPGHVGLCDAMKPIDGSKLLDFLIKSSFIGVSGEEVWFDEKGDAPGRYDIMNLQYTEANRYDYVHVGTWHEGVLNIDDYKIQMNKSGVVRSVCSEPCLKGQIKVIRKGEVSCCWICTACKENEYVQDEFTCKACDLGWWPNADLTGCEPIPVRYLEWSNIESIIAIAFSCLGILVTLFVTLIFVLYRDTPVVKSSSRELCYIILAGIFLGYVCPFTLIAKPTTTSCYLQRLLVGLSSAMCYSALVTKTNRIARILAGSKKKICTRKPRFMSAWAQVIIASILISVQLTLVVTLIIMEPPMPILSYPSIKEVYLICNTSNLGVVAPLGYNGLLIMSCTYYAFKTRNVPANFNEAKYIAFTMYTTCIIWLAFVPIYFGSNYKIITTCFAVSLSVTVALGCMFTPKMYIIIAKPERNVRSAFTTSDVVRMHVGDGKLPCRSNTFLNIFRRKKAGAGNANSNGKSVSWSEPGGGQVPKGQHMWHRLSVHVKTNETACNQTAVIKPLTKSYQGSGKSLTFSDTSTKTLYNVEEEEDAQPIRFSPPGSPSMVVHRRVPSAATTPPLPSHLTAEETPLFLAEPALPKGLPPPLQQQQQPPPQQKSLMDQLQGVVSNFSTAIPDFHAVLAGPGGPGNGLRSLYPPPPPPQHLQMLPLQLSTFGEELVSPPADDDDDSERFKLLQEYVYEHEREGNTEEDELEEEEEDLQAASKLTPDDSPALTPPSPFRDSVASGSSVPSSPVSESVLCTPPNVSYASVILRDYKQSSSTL
Sequence of rat mGlu1 (P23385 19-1199): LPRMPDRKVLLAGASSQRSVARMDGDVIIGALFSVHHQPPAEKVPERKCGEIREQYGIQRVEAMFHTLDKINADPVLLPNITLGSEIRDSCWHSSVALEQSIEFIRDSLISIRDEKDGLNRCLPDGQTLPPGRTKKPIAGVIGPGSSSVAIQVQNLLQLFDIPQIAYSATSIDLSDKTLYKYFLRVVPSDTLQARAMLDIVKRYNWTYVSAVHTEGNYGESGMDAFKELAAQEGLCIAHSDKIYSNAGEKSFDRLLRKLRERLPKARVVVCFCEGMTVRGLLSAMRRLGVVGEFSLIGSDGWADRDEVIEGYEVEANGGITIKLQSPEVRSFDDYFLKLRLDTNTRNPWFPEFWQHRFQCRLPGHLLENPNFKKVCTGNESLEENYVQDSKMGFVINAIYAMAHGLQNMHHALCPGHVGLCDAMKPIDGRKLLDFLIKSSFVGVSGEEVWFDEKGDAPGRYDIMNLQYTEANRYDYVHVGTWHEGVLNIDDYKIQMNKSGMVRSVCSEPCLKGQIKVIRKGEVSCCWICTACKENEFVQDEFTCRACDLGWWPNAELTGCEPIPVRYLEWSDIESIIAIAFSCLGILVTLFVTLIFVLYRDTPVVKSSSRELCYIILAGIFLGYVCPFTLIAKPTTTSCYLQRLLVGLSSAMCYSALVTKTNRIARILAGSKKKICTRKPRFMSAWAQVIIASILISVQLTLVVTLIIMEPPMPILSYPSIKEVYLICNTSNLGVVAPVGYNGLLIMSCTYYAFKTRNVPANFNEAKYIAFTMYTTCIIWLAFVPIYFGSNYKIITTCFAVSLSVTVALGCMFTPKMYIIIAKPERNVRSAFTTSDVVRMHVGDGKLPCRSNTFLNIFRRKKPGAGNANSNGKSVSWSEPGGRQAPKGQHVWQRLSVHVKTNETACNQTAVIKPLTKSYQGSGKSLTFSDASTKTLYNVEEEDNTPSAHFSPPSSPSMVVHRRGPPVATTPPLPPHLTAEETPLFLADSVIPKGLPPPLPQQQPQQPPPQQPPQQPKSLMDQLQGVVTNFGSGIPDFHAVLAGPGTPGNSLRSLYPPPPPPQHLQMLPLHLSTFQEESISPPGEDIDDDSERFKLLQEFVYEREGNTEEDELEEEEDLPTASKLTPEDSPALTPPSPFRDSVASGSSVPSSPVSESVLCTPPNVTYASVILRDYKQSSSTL

In the case of `COC1CCC(C(=O)c2ccc3nc4c(cc3c2)CCCO4)CC1` (centres unmarked) [Compound 1], in data set [1], the “efficacy in squirrel monkey models of addiction” value is recorded as “efficacious”. The “efficacy in rat models of addiction” value in data set [2] is “efficacious”. Also, the “efficacy in a rat model of anxiety” value in data set [3] is listed as “efficacious”. Further, the “antipsychotic activity, acoustic prepulse inhibition models, mice” value in [4] is listed as “Antipsychotic activity”.
Take `CN(C)c1ccnc2sc3c(=O)n(N4CCCCCC4)cnc3c12` [Compound 2]: in data set [5], the “analgesia in rat models of neuropathic pain” value is given as “analgesic”. For the same compound, the “analgesia in rat models of post-operative pain” value in data set [6] was “analgesic”.
In the case of `C[C@@H]1CN(c2ccccn2)CCN1C(=O)C12CC3CC(CC(C3)C1)C2` [Compound 15], in data set [7], the “preference in mGlu1 NAM activity for the R-enantiomer versus the S-enantiomer” value is reported as 15 fold.
On to `C[C@@H]1CN(C(=O)C23CC4CC(CC(C4)C2)C3)CCN1c1ccccn1` [Compound 17], for which the “preference in mGlu1 NAM activity for the R-enantiomer versus the S-enantiomer” value in data set [7] is recorded as “sixfold”.
For `C[C@@H]1CN(C(=O)C23CC4CC(CC(C4)C2)C3)CCN1c1ccncc1` [Compound 39], the “mGlu1 activity at the top concentration tested” value in data set [7] (30 µM) is “no activity”.
Turning to `C[C@@H]1CN(c2ccccc2C#N)CCN1C(=O)C12CC3CC(CC(C3)C1)C2` [Compound 46], in data set [7], the “LLE (ligand-lipophilicity efficiency)” value amounted to 1.82.
On the same count and under the same terms, as for `C[C@@H]1CN(c2cccc(F)n2)CCN1C(=O)C12CC3CC(CC(C3)C1)C2` [Compound 48], the figure is 1.85.
Still for that read-out and setting: as for `C[C@@H]1CN(c2ccc(F)cn2)CCN1C(=O)C12CC3CC(CC(C3)C1)C2` [Compound 49], the figure is 1.73.
On to `C[C@@H]1CN(c2ncccc2C#N)CCN1C(=O)C12CC3CC(CC(C3)C1)C2` [Compound 51], for which the “LLE (ligand-lipophilicity efficiency)” value in data set [7] is 2.24.
As for `C[C@@H]1CN(c2ccncc2C#N)CCN1C(=O)C12CC3CC(CC(C3)C1)C2` [Compound 53], in [7], the “LLE (ligand-lipophilicity efficiency)” value is given as 2.89.
Consider `C[C@@H]1CN(c2cccnc2C#N)CCN1C(=O)C12CC3CC(CC(C3)C1)C2` [Compound 54], for which, in data set [8], the clearance result is on record as “moderate to high” and the volume of distribution result is on record as “moderate”. Also, in data set [9], the half-life was ~1 h. Besides, the “activity against mGlu2–8” value in data set [10] was “inactive”. The “responses in radioligand binding panel of 68 targets” value in data set [11] is on record as “no significant responses”. In addition, the “activity at rat mGlu1 compared with human mGlu1” value in data set [12] is given as “little difference across species”.
